In the SangsterLogP compilation:
One block for each compound: values may come before it.

Legend:
[1] = method code SF-RC, from DOI: 10.1002/jlcr.3239, PMID: 25359578; settings: pH 7.4
[2] = from Courrière, P.; Paubel, J.P.; Nivière, P.; Foussard-Blaspin, O. (1978). Structure-activity study in a series of local anesthetic agents. I. Physicochemical properties and molecular orbital study. …
[3] = method code SF-RC, from DOI: 10.1016/j.nucmedbio.2013.04.008, PMID: 23731552; settings: pH 7.4
[4] = method code SF-HPLC, from DOI: 10.1016/j.ijpharm.2014.07.033, PMID: 25079434; settings: pH 7.4
[5] = not given; remark: listed apart in the source
[6] = method code SF-LC/MS, from DOI: 10.1002/rcm.3594, PMID: 18543375; settings: pH 7.4
[7] = method code SF-AS, from DOI: 10.1081/jlc-120004751
[8] = not given; remark: listed apart in the source
[9] = not given; remark: listed apart in the source
[10] = method code SF-RC, from DOI: 10.1016/j.nucmedbio.2008.04.004, PMID: 18589308; settings: pH 7.4
[11] = not given; remark: listed apart in the source
[12] = method code SF-HPLC, from DOI: 10.1016/0378-5173(91)90409-h; settings: pH 7.4
[13] = method code SF-RC, from DOI: 10.1016/s0022-2275(20)42614-8, PMID: 2280184; settings: pH 1.0
[14] = not given; remark: listed apart in the source
[15] = not given; remark: listed apart in the source
[16] = not given; remark: listed apart in the source
[17] = method code SF-HPLC, from DOI: 10.1016/j.ejps.2016.07.010, PMID: 27422078; settings: pH 7.4
[18] = method code SF, from DOI: 10.1016/j.bmcl.2013.12.011, PMID: 24342238
[19] = method code SF-AS, from PMID: 7170648; settings: pH 7.4
[20] = not given; remark: listed apart in the source
[21] = not given; remark: listed apart in the source
[22] = not given; remark: listed apart in the source
[23] = method code SF-AS, from PMID: 7306420; settings: pH 7.5
[24] = method code SF-AS, from DOI: 10.1016/0014-2999(72)90235-x, PMID: 4113999
[25] = not given; remark: listed apart in the source
[26] = method code SF-EIA, from DOI: 10.1016/s0022-2275(20)42614-8, PMID: 2280184; settings: pH 1.0
[27] = method code SF-HPLC, from DOI: 10.1016/j.ejps.2006.07.007, PMID: 16997537; settings: pH 7.4
[28] = not given; remark: listed apart in the source
[29] = not given; remark: listed apart in the source
[30] = not given; remark: listed apart in the source
[31] = method code SF, from Huang, J.; Leng, X. (1993). Interaction of rat hepatocyte and cytochrome P 450 with pyrethroids in vitro. Dong Wu Xue Bao, 39(4)418-423.
[32] = from Letourneux, Y.; Sparfel, L.; Roussakis, C.; Piessard, S.; LeBaut, G. (1984). Pyrophthalones. VI. Derivatives of (N-alkyldihydro-1,4-pyridinyliden-4-yl)-2-indanedione-1,3. Search for antitumor …; settings: pH 7.4
[33] = not given; remark: listed apart in the source
[34] = method code SF-AS, from DOI: 10.3109/00498258809055142, PMID: 3354228
[35] = not given; remark: listed apart in the source
[36] = not given; remark: listed apart in the source
[37] = not given; remark: listed apart in the source
[38] = method code SF, from DOI: 10.1016/0014-2999(77)90010-3, PMID: 336381; settings: pH 9.8
[39] = method code SF-AS, from PMID: 4762845; settings: pH 1.0
[40] = method code SF, from DOI: 10.1016/s0223-5234(00)80025-2, PMID: 11278041; settings: pH 7.4

- logD [1]: 1.9
SMILES: O=C(NCCF)Nc1ccc(-c2nc(N3CC4CCC(C3)O4)c3cnn(CC(F)(F)F)c3n2)cc1

SMILES: CN1CN(c2ccccc2)C2(CCN(CCCC(=O)c3ccc(I)s3)CC2)C1=O
- logP: 3.14

SMILES: CCN(CC)CCCN(C(=O)Cc1ccccc1)c1c(C)cccc1C
- logP [2]: 4.94

SMILES: O=C(Nc1cccnn1)N1CCC(=Cc2cccc(Oc3ccc(C(F)(F)F)cn3)c2)CC1
- logD [3]: 3.48

- logD [4]: 3.26
SMILES: CNC(=O)c1cccc2c(Nc3ccc(NS(C)(=O)=O)cc3OC)c3cccc(C)c3nc12

SMILES: C[C@]12CC[C@H](O)C[C@H]1CC[C@@H]1[C@@H]2CC[C@]2(C)[C@@H](c3ccc(=O)oc3)CC[C@]12O
- logP [5]: 3.34

SMILES: COc1cc2c(c(OC)c1OC)-c1ccc(OC)c(=O)cc1[C@@H](NC(C)=O)CC2
- logD [6]: 1.08

- logP [7]: 0.67
SMILES: Cc1cn(C2CC(N=[N+]=[N-])C(COC(=O)C(=O)NC(Cc3c[nH]c4ccccc34)C(=O)O)O2)c(=O)[nH]c1=O (stereo unspecified)

- logP [8]: 3.35
SMILES: FCCOc1ccc(CN2CCN(Cc3cc4ccccc4o3)CC2)cc1

- logP [9]: 4.8
SMILES: CCCN(CCCCN1C(=O)CC2(CCCC2)CC1=O)C1COc2cccc(OC)c2C1 (stereo unspecified)

- logD [10]: 3.95
SMILES: O=C(OC[C@@H]1O[C@H](n2cc(Br)c(=O)[nH]c2=O)[C@H](F)[C@H]1OC(=O)c1ccccc1)c1ccccc1

- logP [11]: 7.17
SMILES: COc1ccc(C=Cc2ccc(C=Cc3ccc(OC)c(C(F)(F)F)c3)c(O)c2)cc1C(F)(F)F

- logD [12]: -1.25
SMILES: NC(=O)[C@@H]1CCCN1C(=O)[C@H](Cc1cn(C2OC(=O)c3ccccc32)cn1)NC(=O)[C@@H]1CCC(=O)N1 (stereo partly specified)

- logD [13]: 2.25
SMILES: CC(CCC(=O)NCC(=O)O)C1CCC2C3CCC4CC(O)CCC4(C)C3CC(O)C12C (stereo in doubt)

- logP [14]: 2.1
SMILES: Cc1cc(C(=O)Nc2ccc(-c3ccccc3S(N)(=O)=O)cc2)n(-c2ccc3onc(N)c3c2)n1

- logP [15]: 4.2
SMILES: CC(C)(C)CC(=O)N1CCC(N(c2ccc(C(F)(F)F)cc2)c2cccnc2)CC1

- logP [16]: 3.8
SMILES: COc1cccc([C@H](O)C2CCN(CCc3ccc(F)cc3)CC2)c1OC

- logD [17]: 2.33
SMILES: Cc1cc(=O)c2c(O)cc(O)c(C3CCN(C)CC3OC(=O)c3ccccc3)c2o1 (stereo unspecified)

- logP [18]: 3.48
SMILES: CN(C)Cc1cc(C=CC(=O)C=C(O)C=Cc2ccc(O)c(N(C)C)c2)ccc1O

- logD [19]: 3.95
SMILES: CCN(CC)C(=O)N1CCN(Cc2cc(Nc3ccnc4cc(Cl)ccc34)ccc2O)CC1

- logP [20]: 7.64
SMILES: c1cc2ccc3ccc4ccc5ccc6ccc1c1c2c3c4c5c61

- logP [21]: -1.52
SMILES: CC(=O)N(O)CCCCCNC(=O)CCC(=O)N(O)CCCCCNC(=O)CCC(=O)N(O)CCCCCN

- logP [22]: 3.78
SMILES: CN1CCc2cc(Cl)c(O)cc2[C@@H](c2ccc(SCc3ccccc3)cc2)C1

- logD [23]: 2.02
SMILES: CS(=O)(=O)c1ccc2c(c1)N(CCCN1CCC(C(N)=O)CC1)c1ccccc1S2

- logP [24]: 3
SMILES: OCCN1CCN(CCC=C2c3ccccc3Sc3ccc(Cl)cc32)CC1

- logP [25]: 3.4
SMILES: c1cncc(-c2cnn3cc(-c4ccc(OCCN5CCCCC5)cc4)cnc23)c1

- logD [26]: 3.08
SMILES: C[C@H](CCC(=O)O)[C@H]1CC[C@H]2[C@@H]3C[C@H](O)[C@@H]4C[C@H](O)CC[C@]4(C)[C@H]3CC[C@]12C

- logD [27]: 2.37
SMILES: CCOC(=O)C1OC(Oc2cc3oc(-c4ccc(O)cc4)cc(=O)c3c(O)c2O)C(O)C(O)C1O (stereo unspecified)

- logP [28]: 3.38
SMILES: COc1cc2nc(N3CCN(C(=O)C4COc5ccccc5O4)CC3)nc(N)c2cc1OC (stereo unspecified)

- logP [29]: 4.33
SMILES: C=CCn1nc(-c2sc(NC(=O)C(C)(C)C)nc2C)cc1C(=O)NCc1ccccc1

- logP [30]: 1.13
SMILES: CC(C)C(NC(=O)CN1C(=O)C(NC(=O)NCc2cc[n+]([O-])cc2)CC=C1c1ccccc1)C(=O)C(F)(F)F (stereo unspecified)

SMILES: CC(C)C(C(=O)OC(C#N)c1cccc(Oc2ccccc2)c1)c1ccc(OC(F)F)cc1 (stereo unspecified)
- logP [31]: 5.55

- logD [32]: 2.84
SMILES: CC1=CC(=C2C(=O)c3ccccc3C2=O)C=C(C)N1CCCNC(=O)N(CCCl)N=O

SMILES: CCCCC(CC)COC(=O)c1ccccc1C(=O)OCC(CC)CCCC (stereo unspecified)
- logP [33]: 7.3

- logP [34]: 3
SMILES: OCCN1CCN(CCCN2c3ccccc3C=Cc3ccccc32)CC1

- logP [35]: 8.14
SMILES: CCCCCCCCCCCCC(Br)C(=O)OCC1OC(n2cc(C)c(=O)[nH]c2=O)CC1N=[N+]=[N-] (stereo unspecified)

- logP [36]: 0.9
SMILES: COC(=O)CC(O)CC(O)C=Cn1c(C(C)C)nc(-c2ccncc2)c1-c1ccc(F)cc1 (stereo unspecified)

- logP [37]: 3.48
SMILES: CC(=O)O[C@]1(C(C)=O)CC[C@H]2[C@@H]3C[C@H](F)C4=CC(=O)CC[C@]4(C)[C@H]3CC[C@@]21C

- logD [38]: 3.43
SMILES: O=c1[nH]c2ccccc2n1C1CCN(C[C@@H](O)[C@@H]2COc3ccccc3O2)CC1 (relative stereo)

- logD [39]: 1.42
SMILES: O=C(CCOCCOCCOCCOCCC(=O)Nc1c(I)cc(I)c(C(=O)O)c1I)Nc1c(I)cc(I)c(C(=O)O)c1I

- logD [40]: 4.23
SMILES: CC(C)Cc1ccc(C(C)C(=O)OCN2C(=O)C(=O)c3ccccc32)cc1 (stereo unspecified)
